According to patent US9416115B2, “Fused heterocyclic compounds as ion channel modulators” (Gilead Sciences, Inc., priority 2013, dated 2016):

Experiments:
[1] = tested on: Ischemia-Induced ST Segment Elevation in Anesthetized Rabbits; experiment: Ischemia-induced ST segment elevation in anesthetized rabbits; type: in vivo, New Zealand rabbits; details: iv infusion; 15 min LAD ischemia after 30 min of compound administration
Method: This study was undertaken to determine the anti-ischemic effects of compounds of the present disclosure in an in vivo rabbit model.
Female New Zealand rabbits (3.0-4.0 kg) were purchased from Western Oregon Rabbitry. Animals were housed on a 12-h light and dark cycle and received standard laboratory chow and water. All experiments were performed in accordance with the Guide for the Care and Use of Laboratory Animals published by The National Research Council and with the experimental protocol approved by the Institutional Animal Care Committee of Gilead Sciences, Inc.
(§1) Rabbits were anesthetized with ketamine (35 mg/kg) and xylazine (5 mg/kg) intramuscular injection (im). A tracheotomy was performed and the trachea was intubated with an endotracheal tube. The animal was ventilated with room air supplemented with oxygen using a pressure control animal ventilator (Kent Scientific Corp., Torrington, Conn.) at a respiratory rate of 40 strokes/min and peak inspiration pressure of 10 mmH2O, which was adjusted to keep blood gases and pH within the physiological range (iSTAT clinic analyzer, Heska Corp.; Waukesha, Wis.). The left femoral artery was cannulated for the measurement of blood pressure (BP). Blood samples were also withdrawn from femoral artery. The right external jugular vein was cannulated for drug/vehicle administration. Needle electrodes were inserted subcutaneously into the limbs for recording of the surface electrocardiogram (ECG).
The heart was exposed via an incision in the 4th intercostal space (4th and/or 5th ribs were cut for a clear surgical vision). The chest was opened and a pericardial cradle was formed using 4 retractors. A coronary artery occluder, comprised of a snare made of 5 cm PE-10 tubing with a 6-0 Prolene polypropylene suture in it, was placed loosely around the left anterior descending artery (LAD) at its origin. Two unipolar electrodes, made with teflon coated silver wire attached to a small patch of filter paper, were attached on the surface of the ischemic and normal regions of the left ventricle to record epicardial electrocardiogram.
(§2) Reference electrodes were placed in the open incision of the neck. The body temperature of the animal was monitored via a rectal thermometer and maintained at 37-40° C. by adjusting the surface temperature of the surgical table. Regional ischemia (15 min) was induced by ligating the LAD followed by 15 min of reperfusion caused by releasing the ligation. The heart was excised at the end of the experiment and the LAD was re-ligated. The ischemic area was visualized by perfusing the heart with 1% Evans blue in saline and calculated as a percentage of total ventricular weight. Rabbits with ischemic area less than 10% or larger than 25% were excluded from the analysis. Animals were randomly assigned to vehicle and test compound groups. Test compounds were dissolved in 15% NMP, 10% Solutol and 75% de-ionized water (dH2O). Test compounds were given as an iv infusion at a rate targeted to reach plasma concentrations of 1 μM. After 30 min of compound administration the heart was subjected to 15 min of ischemia followed by 15 min of reperfusion.

[2] = Plasma concentration in the rabbit ischemia study; type: in vivo, New Zealand rabbits; details: iv infusion targeted to 1 uM plasma
Method: as §1, §2

[3] = target: hNav1.7 (Homo sapiens, UniProt Q15858); experiment: Voltage-dependent inhibition of the Nav1.7 sodium channel; type: cell-based; details: voltage-dependent block of peak current
Method: HEK-293 cells stably expressing wild-type (WT) hNav1.7 were obtained from Scottish Biomedical (Glasgow, Scotland, United Kingdom). Cells are maintained with standard tissue culture procedures and stable channel expression is maintained with 500 ug/mL G418 in the culture medium. Unless otherwise noted, all reagents are purchased from Sigma-Aldrich (St Louis, Mo., U.S.A.).
Assays measuring Voltage-Dependent Block (VDB) of Nav1.7 are performed on an automated electrophysiology platform, QPatch 16X or QPatch HT (Sophion Bioscience, Copenhagen, Denmark), using the whole cell patch clamp technique to measure currents through the cell membrane. Series resistance compensation is set to 100% and series resistance and whole-cell compensation are performed automatically. Currents stored in the Sophion Bioscience Oracle database (Sophion Bioscience, Copenhagen, Denmark). Analysis is performed using QPatch Assay software and data are compiled in Excel 2010 (Microsoft, Seattle, Wash., U.S.A.).
The internal (pipette) solution consists of (in mM) 105 CsF, 10 NaF, 20 CsCl, 2 EGTA, 10 HEPES, 10 Dextrose with a pH of 7.35 and osmolarity of 300 mOsmol/kg. The external (bath) solution contains in (mM): 140 NaCl, 4 KCl, 1.8 CaCl2, 1 MgCl2, 10 dextrose, 10 HEPES, with a pH of 7.35 and osmolarity of 310 mOsmol/kg. Experiments are carried out at 23-25° C.
Compound stocks are routinely made by the Gilead Sample Bank in vials to 10 mM in dimethyl sulfoxide (DMSO). In some cases, when compounds are not soluble in DMSO, they are made in 100% ethanol. Stocks are sonicated as necessary. Compounds are diluted in extracellular solution using a MicroLab Nimbus (Hamilton Robotics, Reno, Nev.) to 1 μM in glass vials and transferred to glass well plates before robotic addition to the cells.
Cells are allowed to stabilize for 10 min after establishment of the whole-cell configuration before current is measured. The test compound is applied 3 times at 120 second intervals to allow for equilibration. Currents were leak subtracted using a P/4 procedure, low-pass Bessel filtered at 5 kHz and digitized at 25 kHz. Results are presented as mean percentage inhibition.
Voltage-dependent block of Nav1.7 peak current was measured during a voltage step to 0 mV (20 ms) following a voltage step pre-conditioning steps (−60 mV for 10 sec followed by −120 mV for 10 ms). The holding potential was −120 mV and this voltage protocol induces half maximal inactivation of Nav1.7. The voltage protocol for VDB was performed every 45 seconds in the absence and presence of compound and percentage inhibition was calculated with respect to the compound free condition.

Chain of hNav1.7 (Q15858 whole entry): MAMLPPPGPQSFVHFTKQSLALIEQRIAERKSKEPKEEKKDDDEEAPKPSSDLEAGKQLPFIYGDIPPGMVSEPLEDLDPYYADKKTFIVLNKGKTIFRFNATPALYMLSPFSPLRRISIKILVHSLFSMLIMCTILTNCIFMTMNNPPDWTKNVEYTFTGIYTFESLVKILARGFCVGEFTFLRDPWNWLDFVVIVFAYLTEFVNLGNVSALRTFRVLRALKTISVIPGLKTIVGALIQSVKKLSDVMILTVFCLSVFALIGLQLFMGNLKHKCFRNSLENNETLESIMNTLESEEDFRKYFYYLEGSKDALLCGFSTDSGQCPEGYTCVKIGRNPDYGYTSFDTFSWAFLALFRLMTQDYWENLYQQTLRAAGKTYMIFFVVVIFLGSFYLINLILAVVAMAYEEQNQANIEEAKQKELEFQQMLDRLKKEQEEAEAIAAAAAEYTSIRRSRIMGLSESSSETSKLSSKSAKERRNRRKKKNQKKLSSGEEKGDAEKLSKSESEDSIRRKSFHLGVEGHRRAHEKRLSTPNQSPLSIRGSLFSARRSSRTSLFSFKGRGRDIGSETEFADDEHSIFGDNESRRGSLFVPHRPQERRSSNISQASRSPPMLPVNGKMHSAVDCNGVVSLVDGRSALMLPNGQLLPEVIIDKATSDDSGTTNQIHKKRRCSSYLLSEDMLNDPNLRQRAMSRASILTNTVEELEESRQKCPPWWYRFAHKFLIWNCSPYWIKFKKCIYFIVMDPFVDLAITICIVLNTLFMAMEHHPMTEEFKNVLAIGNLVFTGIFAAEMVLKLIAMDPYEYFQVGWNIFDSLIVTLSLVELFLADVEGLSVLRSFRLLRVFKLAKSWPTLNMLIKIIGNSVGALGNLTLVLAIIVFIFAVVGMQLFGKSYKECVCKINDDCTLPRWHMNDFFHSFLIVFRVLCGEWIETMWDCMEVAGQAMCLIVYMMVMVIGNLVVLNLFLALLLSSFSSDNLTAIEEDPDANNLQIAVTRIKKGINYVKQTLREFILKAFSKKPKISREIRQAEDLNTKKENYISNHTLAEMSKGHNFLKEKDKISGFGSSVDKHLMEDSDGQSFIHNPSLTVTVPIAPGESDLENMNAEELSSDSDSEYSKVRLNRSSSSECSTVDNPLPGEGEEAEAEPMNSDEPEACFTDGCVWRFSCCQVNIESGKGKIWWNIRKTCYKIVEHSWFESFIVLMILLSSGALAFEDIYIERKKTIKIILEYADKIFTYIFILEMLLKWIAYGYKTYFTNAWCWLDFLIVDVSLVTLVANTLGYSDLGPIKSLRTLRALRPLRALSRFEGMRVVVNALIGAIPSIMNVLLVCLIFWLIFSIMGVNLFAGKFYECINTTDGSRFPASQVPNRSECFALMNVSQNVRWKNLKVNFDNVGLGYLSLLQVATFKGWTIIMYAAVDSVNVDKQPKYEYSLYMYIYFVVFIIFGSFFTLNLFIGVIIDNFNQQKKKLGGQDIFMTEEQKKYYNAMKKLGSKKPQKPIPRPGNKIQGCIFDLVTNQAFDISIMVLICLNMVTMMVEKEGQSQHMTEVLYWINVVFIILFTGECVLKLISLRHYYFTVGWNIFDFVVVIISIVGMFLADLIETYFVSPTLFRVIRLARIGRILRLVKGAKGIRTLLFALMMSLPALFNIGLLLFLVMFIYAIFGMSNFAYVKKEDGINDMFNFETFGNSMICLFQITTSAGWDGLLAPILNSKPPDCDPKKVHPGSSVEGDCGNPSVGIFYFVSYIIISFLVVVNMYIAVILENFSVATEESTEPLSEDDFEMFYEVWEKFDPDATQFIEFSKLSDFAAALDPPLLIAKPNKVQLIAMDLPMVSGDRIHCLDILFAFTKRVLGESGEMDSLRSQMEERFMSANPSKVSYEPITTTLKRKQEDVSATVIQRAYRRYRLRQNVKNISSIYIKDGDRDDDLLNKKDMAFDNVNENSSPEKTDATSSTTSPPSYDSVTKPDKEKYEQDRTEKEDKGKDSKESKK

SMILES	Rabbit ST Segment (Percent reduction) [1] [Percent reduction]	Plasma concentration [2] [nM]	Nav 1.7-VDB 1 uM [3] [percentage inhibition]
FC(F)(F)COc1ccc(-c2ccc3onc(OCc4ncccn4)c3c2)cn1 [Example 21, 3-(pyrimidin-2-ylmethoxy)-5-(6-(2,2,2-trifluoroethoxy)pyridin-3-yl)benzo[d]isoxazole]	66	400	–
Cc1cc(OC(F)(F)F)ccc1-c1cc2c(OCc3ncccn3)noc2cc1C [Example 29, 6-methyl-5-(2-methyl-4-(trifluoromethoxy)phenyl)-3-(pyrimidin-2-ylmethoxy)benzo[d]isoxazole]	–	–	34.2
